Counter-ions that a name gives are not always drawn. Like-named read-outs stand apart in the source and are kept apart here.
Columns and labels:
ERα = ERα (Homo sapiens (Human), UniProt P03372); assay: ERα degradation (MCF7 cells), in-cell Western; type: cell-based; details: for IC50: inflection point of the degradation in response to ligand concentration
Protocol: ERα Degradation (MCF7 Cells)
(§1) The column titled MCF7 IC50 reports the inflection point of the inhibition of transcription in MCF7 cells as described above. Percentage ERα remaining reports the remaining ERα protein measured at 10 μM concentration of the ligand as described above. The column ERα IC50 reports the inflection point of the degradation in response to the ligand concentration.

[1] = molecular target: ER (endogenous, MCF7 cells) (Homo sapiens (Human), UniProt P03372); assay: ER transcription assay (MCF7 cells), ERE-luciferase reporter; type: cell-based
ER (endogenous, MCF7 cells), sequence (P03372 whole entry): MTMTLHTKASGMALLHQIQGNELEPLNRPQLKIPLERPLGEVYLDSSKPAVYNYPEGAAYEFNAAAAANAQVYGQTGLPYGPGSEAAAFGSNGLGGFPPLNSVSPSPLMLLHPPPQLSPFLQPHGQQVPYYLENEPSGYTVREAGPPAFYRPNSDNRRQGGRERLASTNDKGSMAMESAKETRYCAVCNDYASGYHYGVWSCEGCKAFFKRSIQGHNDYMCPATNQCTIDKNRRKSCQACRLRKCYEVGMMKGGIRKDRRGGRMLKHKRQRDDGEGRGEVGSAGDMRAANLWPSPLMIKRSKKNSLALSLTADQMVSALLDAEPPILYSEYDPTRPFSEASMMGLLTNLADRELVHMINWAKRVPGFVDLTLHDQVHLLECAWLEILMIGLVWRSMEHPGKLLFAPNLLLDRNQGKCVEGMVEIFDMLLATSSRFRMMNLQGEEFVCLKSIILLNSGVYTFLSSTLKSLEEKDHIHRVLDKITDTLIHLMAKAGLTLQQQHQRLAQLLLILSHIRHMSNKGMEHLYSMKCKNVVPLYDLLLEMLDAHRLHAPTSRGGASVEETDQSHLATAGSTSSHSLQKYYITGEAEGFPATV
Source text: ER Transcription Assay (MCF7 Cells)
The ER transcription assay is a reporter assay that is based on the ability of ER to induce transcription from a luciferase reporter gene containing estrogen response elements (EREs) in the promoter/enhancer region. When the reporter gene is transfected in MCF7 cells (containing endogenous ER), transcription is reflected by the level of luciferase expression.
A day before transfection, cells are split into a T75 flask at a cell density of 300,000 cells/mL (10 mL total) and allowed to attach overnight in a humidified CO2 incubator at 37° C.
Approximately 20 ug DNA is mixed in OptiMEM (Invitrogen) to a total volume of 650 μL. Following incubation, the OptiMEM-DNA mixture is added to the OptiMEM-Lipofectin mix and incubated for 15 minutes at 37° C. The DNA-Lipofectin mixture is then added directly to the T75 flask and the flask is returned to the incubator.
Normally, DMSO (used as a vehicle) is included to achieve a final concentration of 0.1% when added to the cells. Transfected cells are trypsinized, resuspended in DMEM/F12/10% charcoal-stripped serum and added to the 96-well plate at 25,000 cells/well in 90 μL of media. The plate is then returned to the incubator for 24 hours.
After incubation with compounds for 24 hours, Firefly and Renilla luciferase activities are measured to determine ER transcriptional activity. Media is removed from 96-well plates by decanting and blotting on paper towels.
One second total read time after a one second delay.
One second total read time after one second delay. If Firefly luciferase signal is high, Renilla assay must be done an hour after the Firefly assay due to incomplete squelching of Firefly signal.
as §1

[2] = remaining ERα protein at 10 μM ligand, MCF7 cells, relative to DMSO control
[3] = inflection point of the inhibition of transcription in MCF7 cells, 0.1 nM estradiol, 24 hours, read-out: MCF7 IC50

ERα, sequence (P03372 whole entry): as above

Row | SMILES | % ERα remaining (ERα; [2]) [%] | IC50 [1, 3] [µM] | IC50 (ERα; MCF7 cells) [µM] | % ERα remaining (ERα) [%] | IC50 ([1]; read-out: MCF7 IC50) [µM] | ER Percentage remaining (ERα; degradation potential, comparison of linker length between phenyl and -C(O)OH) [Percentage] | IC50 ([1]; antagonist activity, comparison of linker length between phenyl and -C(O)OH, read-out: SERD IC50 MCF7) [µM]
1 | CC(=O)Oc1ccc2c(Oc3ccc(/C=C/C(=O)O)cc3)c(-c3ccccc3C(C)C)sc2c1 [Example 82, (E)-3-(4-((6-acetoxy-2-(2-isopropylphenyl)benzo[b]thiophen-3-yl)oxy)phenyl)acrylic acid] | 21 | 0.011 |  |  |  |  | 
2 | O=C(O)/C=C/c1ccc(Oc2c(-c3cccc(F)c3C(F)(F)F)sc3cc(O)ccc23)cc1 [Example 90, (E)-3-(4-((2-(3-fluoro-2-(trifluoromethyl)phenyl)-6-hydroxybenzo[b]thiophen-3-yl)oxy)phenyl)acrylic acid] | 15 | 0.026 | 0.0012 |  |  |  | 
3 | CN(C)Cc1ccccc1-c1sc2cc(O)ccc2c1Oc1ccc(/C=C/C(=O)O)cc1 [Example 77, (E)-3-(4-((2-(2-((dimethylamino)methyl)phenyl)-6-hydroxybenzo[b]thiophen-3-yl)oxy)phenyl)acrylic acid] | 15 | 0.044 | 0.0014 |  |  |  | 
4 | COc1ccc(-c2sc3cc(O)ccc3c2Oc2ccc(/C=C/C(=O)O)cc2)c(C(F)(F)F)n1 [Example 91, (E)-3-(4-((6-hydroxy-2-(6-methoxy-2-(trifluoromethyl)pyridin-3-yl)benzo[b]thiophen-3-yl)oxy)phenyl)acrylic acid] | 16 | 0.023 |  |  |  |  | 
5 | CCC(=O)Oc1ccc2c(Oc3ccc(/C=C/C(=O)O)cc3)c(-c3ccccc3C(C)C)sc2c1 [Example 136, (E)-3-(4-((2-(2-isopropylphenyl)-6-(propionyloxy)benzo[b]thiophen-3-yl)oxy)phenyl)acrylic acid] | 11 | 0.0051 |  |  |  |  | 
6 | CC(=O)/C=C/c1ccc(Oc2c(-c3ccc(F)cc3C(F)(F)F)sc3cc(O)ccc23)cc1 [Example 120, (E)-4-(4-((2-(4-fluoro-2-(trifluoromethyl)phenyl)-6-hydroxybenzo[b]thiophen-3-yl)oxy)phenyl)but-3-en-2-one] | 70 | 0.0051 |  |  |  |  | 
7 | CC(C)c1cccc(-c2sc3cc(O)ccc3c2Oc2ccc(/C=C/C(=O)O)cc2)c1 [Example 98, (E)-3-(4-((6-hydroxy-2-(3-isopropylphenyl)benzo[b]thiophen-3-yl)oxy)phenyl)acrylic acid] | 19 | 0.382 | 0.0066 |  |  |  | 
8 | CC(F)(F)c1ccccc1-c1sc2cc(O)ccc2c1Oc1ccc(/C=C/C(=O)O)cc1 [Example 122, (E)-3-(4-((2-(2-(1,1-difluoroethyl)phenyl)-6-hydroxybenzo[b]thiophen-3-yl)oxy)phenyl)acrylic acid] | 15 | 0.011 | 0.0002 |  |  |  | 
9 | CC(C)c1ccccc1-c1sc2cc(OC(=O)[C@@H](N)C(C)C)ccc2c1Oc1ccc(/C=C/C(=O)O)cc1 [Example 85, (S,E)-3-(4-((6-((2-amino-3-methylbutanoyl)oxy)-2-(2-isopropylphenyl)benzo [b]thiophen-3-yl)oxy)phenyl)acrylic acid hydrochloride] |  |  |  | 12 | 0.007 |  | 
10 | CC(C)c1ccccc1-c1sc2c(F)c(O)ccc2c1Oc1ccc(/C=C/C(=O)O)cc1 [Example 101, (E)-3-(4-((7-fluoro-6-hydroxy-2-(2-isopropylphenyl)benzo [b]thiophen-3-yl)oxy)phenyl)acrylic acid] | 18 | 0.0042 | 0.0002 |  |  |  | 
11 | CC(C)OC(=O)/C=C/c1ccc(Oc2c(-c3ccccc3C(C)C)sc3cc(O)ccc23)cc1 [Example 81, (E)-isopropyl 3-(4-((6-hydroxy-2-(2-isopropylphenyl)benzo[b]thiophen-3-yl)oxy)phenyl)acrylate] | 29 | 0.32 |  |  |  |  | 
12 | CN(C)c1ccccc1-c1sc2cc(O)ccc2c1Oc1ccc(/C=C/C(=O)O)cc1 [Example 125, (E)-3-(4-((2-(2-(dimethylamino)phenyl)-6-hydroxybenzo[b]thiophen-3-yl)oxy)phenyl)acrylic acid] | 11 | 0.124 |  |  |  |  | 
13 | Cc1ncccc1-c1sc2cc(O)ccc2c1Oc1ccc(/C=C/C(=O)O)cc1 [Example 100, (E)-3-(4-((6-hydroxy-2-(2-methylpyridin-3-yl)benzo[b]thiophen-3-yl)oxy)phenyl)acrylic acid] | 12 | 0.669 | 0.0054 |  |  |  | 
14 | O=C(O)c1ccc(Oc2c(-c3ccc(O)cc3)sc3cc(O)ccc23)cc1 [reference compound] |  |  |  |  |  | 57 | 10
15 | CC(F)c1ccccc1-c1sc2cc(O)ccc2c1Oc1ccc(/C=C/C(=O)O)cc1 (stereo not shown) [Example 111, (E)-3-(4-((2-(2-(1-fluoroethyl)phenyl)-6-hydroxybenzo[b]thiophen-3-yl)oxy)phenyl)acrylic acid] | 17 | 0.025 | 0.0003 |  |  |  | 
16 | CCCn1cnc(/C=C/c2ccc(Oc3c(-c4ccc(O)cc4)sc4cc(O)ccc34)cc2)c1 [Example 74, (E)-2-(4-hydroxyphenyl)-3-(4-(2-(1-propyl-1H-imidazol-4-yl)vinyl)phenoxy)benzo [b]thiophen-6-ol] | 32 | 0.058 | 0.01 |  |  |  | 
17 | CC(=O)/C=C/c1ccc(Oc2c(-c3ccc(C(F)(F)F)cc3)sc3cc(O)ccc23)cc1 [Example 121, (E)-4-(4-((6-hydroxy-2-(4-(trifluoromethyl)phenyl)benzo[b]thiophen-3-yl)oxy)phenyl)but-3-en-2-one] | 56 | 0.214 |  |  |  |  | 
18 | CC(=O)/C=C/c1ccc(Oc2c(-c3ccccc3C(C)C)sc3cc(O)ccc23)cc1 [Example 78, (E)-4-(4-((6-hydroxy-2-(2-isopropylphenyl)benzo[b]thiophen-3-yl)oxy)phenyl)but-3-en-2-one] | 72 | 0.006 |  |  |  |  | 
19 | COC(=O)/C=C/c1ccc(Oc2c(-c3ccccc3C(C)C)sc3cc(O)ccc23)cc1 [Example 45, (E)-methyl 3-(4-((6-hydroxy-2-(2-isopropylphenyl)benzo[b]thiophen-3-yl)oxy)phenyl)acrylate] | 30 | 0.023 |  |  |  |  | 
20 | N#CCc1ccccc1-c1sc2cc(O)ccc2c1Oc1ccc(/C=C/C(=O)O)cc1 [Example 94, (E)-3-(4-((2-(2-(cyanomethyl)phenyl)-6-hydroxybenzo[b]thiophen-3-yl)oxy)phenyl)acrylic acid] | 20 | 0.086 |  |  |  |  | 
21 | Oc1ccc(-c2sc3cc(O)ccc3c2Oc2ccc(/C=C/c3c[nH]cn3)cc2)cc1 [Example 72, (E)-3-(4-(2-(1H-imidazol-4-yl)vinyl)phenoxy)-2-(4-hydroxyphenyl)benzo[b]thiophen-6-ol] | 39 | 0.053 | 0.011 |  |  |  | 
22 | O=C(O)/C=C/c1ccc(Oc2c(-c3ccc(F)cc3CN3CCCC3=O)sc3cc(O)ccc23)cc1 [Example 99, (E)-3-(4-((2-(4-fluoro-2-((2-oxopyrrolidin-1-yl)methyl)phenyl)-6-hydroxybenzo[b]thiophen-3-yl)oxy)phenyl)acrylic acid] | 14 | 0.544 |  |  |  |  | 
23 | Cc1nnc(/C=C/c2ccc(Oc3c(-c4ccccc4C(C)C)sc4cc(O)ccc34)cc2)[nH]1 [Example 105, (E)-2-(2-isopropylphenyl)-3-(4-(2-(5-methyl-4H-1,2,4-triazol-3-yl)vinyl)phenoxy)benzo [b]thiophen-6-ol] | 25 | 0.014 | 0.0011 |  |  |  | 
24 | CC(C)c1ccccc1-c1sc2cc(OC(=O)C(C)(C)C)ccc2c1Oc1ccc(/C=C/C(=O)O)cc1 [Example 135, (E)-3-(4-((2-(2-isopropylphenyl)-6-(pivaloyloxy)benzo[b]thiophen-3-yl)oxy)phenyl)acrylic acid] | 19 | 0.061 |  |  |  |  | 
25 | O=C(O)/C=C/c1ccc(Oc2c(-c3ccccc3C3CC3)sc3cc(O)ccc23)cc1 [Example 127, (E)-3-(4-((2-(2-cyclopropylphenyl)-6-hydroxybenzo[b]thiophen-3-yl)oxy)phenyl)acrylic acid] | 16 | 0.208 | 0.0042 |  |  |  | 
26 | CC(C)c1ccccc1-c1sc2cc(O)ccc2c1N(C)c1ccc(/C=C/C(=O)O)cc1 [Example 119, (E)-3-(4-((6-hydroxy-2-(2-isopropylphenyl)benzo [b]thiophen-3-yl)(methyl)amino)phenyl) acrylic acid] | 19 | 0.109 | 0.0062 |  |  |  | 

Source: patent US10058534B2, “Benzothiophene derivatives and compositions thereof as selective estrogen receptor degraders” (NOVARTIS AG, priority 2013, dated 2018)
